For series [1], the target named is recombinant hCD47 and recombinant hCD40 (Homo sapiens, UniProt P25942+Q08722). In words: Functional dual ELISA, hCD40 capture and hCD47-His detection. It counts as binding.
Series [2] has as its system macrophages co-cultured with Toledo lymphoma cells. Put plainly: qRT-PCR of macrophages sorted from Toledo lymphoma co-cultures. It counts as cell-based, human. The note with it: qRT-PCR on macrophages isolated by FACS from Toledo co-cultures. The protocol: (§1) FIG. 8D: Macrophage:Toledo lymphoma co-cultures were harvested 2 hours into phagocytosis assays in the presence of rituximab ([…]), SIRPα-Fc-CD40L ([…]), or the combination of both agents. Macrophages were isolated by CD11b+FACS, RNA was prepared, cDNA synthesized, and gene expression (IFNa1, IFNb1, CD80, and CD86) assessed by qRT-PCR. Fold change was calculated using DDCT and values obtained from the housekeeping gene ACTB, and the corresponding values from untreated samples. […] After 2 hours, co-cultures were isolated from tissue culture vessels and were stained with a fluorescently conjugated CD11b antibody to discriminate macrophages. Cells were then assessed by flow cytometry for the co-localization of fluorescent signal from both cells types. […] After 24-hours type I interferon induced luminescence was assessed using a luminometer. The maximum luminescence (RLU) from each experiment was set to 1, and all other samples were normalized accordingly. […]
RNA was prepared from macrophages isolated using fluorescent activated cell sorting (FACS) from SIRPα-Fc-CD40L/Rituximab treated co-cultures macrophages and Toledo lymphoma cells. The RNA was assessed by gRT-PCR for expression of IFNα1 and IFNβ1, and the macrophage activation markers CD80 and CD86.
Background: Quantitative PCR measures a nucleic acid by following its amplification.

The next series deals with RAW264.7-ISG cells. In words: RAW264.7-ISG interferon reporter cells co-cultured with A20 lymphoma cells. It is filed as cell-based, murine. As to conditions: co-culture with A20 lymphoma cells, 24 hours. The protocol:
as §1
Additionally, a macrophage reporter system was used to detect activation. […] After 24 hours, culture supernatant was collected and assessed for luciferase activity, which would indicate activation of a type I interferon response in the RAW-ISG reporter cells. […]

For series [3], the system named is A431, HCC827, K562, HCC1954 and MCF7 cells. Put plainly: Macrophage phagocytosis of EGFR/HER2 human tumor cell line panel. It is filed as cell-based. As to conditions: variety of human tumor cell lines.
Series [4] concerns low Her2-expressing breast cancer cell line (MCF7). Put plainly: Macrophage engulfment of MCF7 cells. It counts as cell-based, human. The note with it: HER2LOW cell line MCF7.
For the next series, the system named is CT26 tumors. Put plainly: Syngeneic CT26 colon tumor model versus CD40/CD47 antibodies (Example 11). It is filed as in vivo, mice. The protocol:
FIG. 20C: a similar CT26 experiment was initiated as described in FIG. 20A above, however mice were pre-treated on days −1, 1, and 10 with IP injections of 100 μg of either or both CD4/CD8 depleting antibodies. Mice were inoculated with CT26 tumors on day 0 and treated at a later starting date than FIG. 20A with mSIRPα-Fc-CD40L ARC on days 7, 9, and 11. […] In FIG. 20D and FIG. 20E, BALB/C mice were inoculated with WEHI3 tumors (FIG. 20D) or A20 tumors (FIG. 20E) subcutaneously on the rear flank, and then treated via IP injection with anti-CD20 or mSIRPα-Fc-CD40L on days 7, 9, and 11 (WEHI3) or days 10, 12, and 14 (A20); when tumors were established and reached approximately 57-60 mm^3. A cohort of mice were pre-treated with an interferon alpha receptor 1 (IFNAR1) blocking antibody ([…] by IP injection) on days -1, 1, and 10 (WEHI3) or on days −1, 1, and 13 (A20). FIG. 20F to FIG. 20H are graphs showing blockade of CD4, CD8, and IFNAR1. Peripheral blood analysis by flow cytometry of CD4 (FIG. 20F), CD8 (FIG. 20G), and IFNAR1 (FIG. 20H) depletion following depleting antibody treatment corresponding to FIG. 20C to FIG. 20E. Samples were normalized to untreated animals.
Implanted CT26 tumors were allowed to grow to ˜30 mm^3 before treatment was initiated with a fixed regimen of two doses of either a CD40 agonist antibody (clone FGK4.5), a CD47 blocking antibody (clone MIAP301), a combination of the two antibodies, or the murine SIRPα-Fc-CD40L chimeric protein. […] Based on this observation, these experiments were repeated in the setting of antibody-mediated depletion of both CD4+ and CD8+ cells (FIG. 20C).
CD4 and CD8 depletion was verified in the peripheral blood at multiple time points during the experiment (see, FIG. 20F and FIG. 20G).

Series [5] concerns cynomolgus macaque erythrocytes. In words: In vitro hemolysis assay, cynomolgus macaque erythrocytes. It counts as cell-based. The source says: However, the in vitro systems used to test this question have significant limitations, including a complete lack of macrophages in the test system.
A short description of series [6]: Repeat-dose safety and activity study in cynomolgus macaques. It counts as in vivo. The protocol: FIG. 21A-D is a graph showing cynomolgus macaques that were treated with vehicle, or 0.1, 1, 10, and 40 mg/kg of SIRPα-Fc-CD40L. Blood chemistry analysis assessed peripheral erythrocyte counts (FIG. 21A), hemoglobin levels (FIG. 21C), and hematocrit (FIG. 21B). In addition, the fold-change in lymphocyte count from pre-dose to 24 hours post-dose is shown (FIG. 21D).
The experiments of this example tested the safety and activity of the human SIRPα-Fc-CD40L chimeric protein following repeat doses in cynomolgus macaques. Briefly, naïve cynomolgus macaques were administered the human SIRPα-Fc-CD40L chimeric protein by intravenous infusion every week, for five consecutive weeks, at doses of 0.1, 1, 10 and 40 mg/kg. Standard hematology and clinical chemistry parameters were collected before and after each dose.
Receptor occupancy was evaluated on circulating CD40+ lymphocytes.

As for “SIRPα-Fc-CD40L: Generic name of the SIRPα ECD-Fc-CD40L ECD chimeric protein; human or murine version depending on the test system”, in series [1], the “simultaneous binding to recombinant hCD47 and recombinant hCD40” value is on record as “simultaneous binding”. In series [2], the “macrophage activation (CD80, CD86) and expression of type I interferon genes (IFNα1, IFNβ1)” value was “induced macrophage activation and the expression of type I interferon genes”. The “type I interferon response, interferon gene-driven luciferase activity” value in the series on RAW264.7-ISG cells is recorded as “stimulates an increase in interferon gene-driven luciferase activity”. In addition, the “macrophage phagocytosis of tumor cells” value in series [3] was “stimulated macrophage phagocytosis of tumor cells”. Besides, in series [4], the phagocytosis result is recorded as “demonstrated monotherapy activity”. In the series on CT26 tumors (antibody-mediated depletion of CD4+ cells), the “therapeutic benefit, requirement for CD4+ T cells” value is recorded as “partially required”. Further, the “therapeutic benefit in the absence of CD8+ cells” value in the series on CT26 tumors (antibody-mediated depletion of CD8+ cells) was “completely eliminated the therapeutic benefit”. Besides, in the series with CT26 tumors (tumor and spleen, 13 days following tumor inoculation), the “proportion of AH1-tetramer positive CD8+ T cells” value is “increase in the proportion of AH1-tetramer positive CD8+T cells in both the tumor and spleen”. For the same substance, in series [5], the hemolysis in vitro result is on record as “did not reveal evidence of hemolysis”. Besides, in series [6] (0.1, 1, 10 and 40 mg/kg), the “number of CD40+ cells in the peripheral blood” value is reported as “dose-dependent decrease in the number of CD40+ cells in the peripheral blood”. Besides, the hematology parameters result in series [6] (declines also noted in the vehicle control group) is recorded as “Mild declines in hematology parameters”. Further, the “total number of lymphocytes before and after each dose” value in series [6] (episodic fluctuation) is “did not depart from the upper and lower range of normal”. Besides, the “serum cytokines (CCL2, CXCL9, CXCL10, IL-6, IL-15, IL-17A, IL-23)” value in series [6] (following each infusion) is “dose-dependent increases in multiple serum cytokines”.
